Patent publication US8247230B2, “Plant stem cell line derived from cambium of herbaceous plant with storage root and method for isolating the same” (Unhwa Corporation, priority 2007, dated 2012)

Assays:
[1] = tested on: ginseng cambium-derived cell line; assay: Proliferation of ginseng cambium-derived cell line in growth medium; format: cell-based; conditions: growth medium containing IAA, not 2,4-D
Description: As shown in FIG. 3(a), after the explant was cultured in medium 2 of Example 1 to necrotize tissues other than the cambium, it was subcultured in medium 3. Medium 3 is an optimal medium for the proliferation of the cambium-derived cell line and is based on the basal salt composition shown in Table 6. When the cambium-derived homogeneous cell line having the ability to divide was cultured in medium 3, it continually divided and proliferated. After about 10-20 days of the culture, the cambium-derived cell line was isolated, and the isolated cell line was allowed to proliferate again in the same medium (medium 3).

[2] = tested on: carrot root cambium-containing explant; assay: Cell line induction in carrot explant with varying kinds of auxins in induction medium; format: cell-based, Daucus carota L.; conditions: for Cell line induction pattern (in words): auxin used in induction medium; for Reaction with respect to cambium: auxins at the same concentration in induction medium, after osmotic stress
Description: A carrot (Daucus carota L.) was prepared and surface-sterilized in the same manner as in Example 1-1. Then, the prepared sample was treated with osmotic stress in the same manner as in Example 1-2 and Example 1-3, and then a cambium-derived cell line was induced from the carrot.
Also, other plant hormone auxins, including IAA, IBA, picloram, 2,4-D, CPA and NAA, were used at the same concentration to examine the influence of the hormone used in induction medium.

[3] = tested on: true wild ginseng adventitious root cambium-derived cell line; assay: Proliferation of true wild ginseng adventitious root cambium-derived cell line in growth medium; format: cell-based; conditions: hormone used instead of 2,4-D in medium 3
Description: As a result, the cambium-derived homogeneous cell line having the ability to divide continually divided and proliferated, and thus after about 10-20 days of the culture, the cambium-derived homogeneous cell line having the ability to divide could be isolated. The true wild ginseng cambium-derived homogeneous cell line thus isolated was allowed to proliferate again by culturing it in the same medium. […] Meanwhile, in the true wild ginseng adventitious root cambium-containing explant in Example 2-1, the cell line was allowed to proliferate in the same manner as in Example 2, except that IBA was used instead of 2,4-D in Table 7.

MMP-1 = assay: Inhibition of MMP-1 expression caused by UV light (UVB) in NHF cells; format: cell-based, human; conditions: 10 uM, 40 mJ UVB, 48 hours, No UV = 100, Control UV = 230
Description: When MMPs are increased due to exposure to UV light, the increased MMPs degrade skin collagen to form skin wrinkles. Thus, the following test was carried out in order to examine whether MMP-1 expression increased due to UV light is inhibited by an extract or culture medium of the true wild ginseng cambium-derived homogeneous cell line.
NHF (normal human fibroblast) cells used in the test were isolated from the fetal penis prepuce and cultured. The culture medium was prepared by adding 10% fetal bovine serum (FBS, Hyclone, Logan, Utah, USA), inactivated by heating at 56° C. for 30 minutes, 100 unit/ml of penicillin, 100 μg/ml of streptomycin and 300 μg/ml of glutamine to DMEM medium (Invitroge Gibco life tech. Vienna, Austriea). The cells were cultured in the medium in a 5% CO2 incubator at a temperature of 37° C. and a humidity of 95% and subcultured at 3-4-day intervals, immediately before the cells were fused with each other.
NHF(p6) cells were dispensed into a 12-well plate at a density of 75,000 cells/well and starved for 24 hours. Then, the cells were radiated with 40 mJ of UVB and treated with varying concentrations of each sample for 48 hours. Then, an experiment was carried out using a kit (Amersham, RPN 2610). As a positive control group, 10 μM retinoic acid was used. […]

[4] = tested on: ginseng root cambium-containing explant; assay: Cell induction in ginseng explant cultured in 2,4-D-containing medium; format: cell-based; conditions: about 7-14 days after yellowing
Description: Meanwhile, in order to examine the influence of the hormone used in the induction medium, the explant was cultured in a 2,4-D-containing medium, which was not the cambium-derived cell line induction medium and has been used in the conventional culture of general ginsengs. […] In other words, it could be seen that, when 2,4-D was used, cell line was induced all other tissues, non-specifically to the cambium.
As shown in FIG. 3(b), when a general culture system containing 2,4-D was used in culture, cells were induced from various tissues (cortex, phloem, xylem, cambium, pith, etc.) present in the entire cross section, and the various cells were mixed with each other. Thus, the induced and proliferated cells had heterogeneity. […] Thus, the induced cells had homogeneity.

O=C(O)Cc1c[nH]c2ccccc12 [IAA, indole-3-acetic acid]
Proliferation in growth medium (in words) [1]: did not proliferate and showed a tendency to differentiate | Cell line induction pattern (in words) [2]: the homogeneous cell line was induced with respect to the cambium | Proliferation in growth medium (in words) [3]: did not differentiate and showed a tendency to differentiate

O=C(O)CCCc1c[nH]c2ccccc12 [IBA, indole-3-butyric acid]
Cell line induction pattern (in words) [2]: the homogeneous cell line was induced with respect to the cambium | Proliferation in growth medium (in words) [3]: did not differentiate and proliferated

CC1=C(/C=C/C(C)=C/C=C/C(C)=C/C(=O)O)C(C)(C)CCC1 [Retinoic acid, retinoic acid]
MMP-1 expression, % of control (MMP-1): 85 % of control

O=C(O)Cc1cccc2ccccc12 [NAA]
Root induction with the passage of time (in words) ([2]; after about 4 weeks): a root was induced and differentiated in the cambium | Cell line induction pattern (in words) [2]: the cell line was induced throughout the whole explant rather than with respect to the cambium | Reaction with respect to cambium [2]: −

O=C(O)COc1ccc(Cl)cc1 [CPA]
Cell line induction pattern (in words) [2]: the cell line was induced throughout the whole explant rather than with respect to the cambium | Reaction with respect to cambium [2]: −

Nc1c(Cl)c(Cl)nc(C(=O)O)c1Cl [Picloram, picloram]
Cell line induction pattern (in words) [2]: the cell line was induced throughout the whole explant rather than with respect to the cambium | Reaction with respect to cambium [2]: −

O=C(O)COc1ccc(Cl)cc1Cl [2,4-D, 2,4-dichlorophenoxyacetic acid]
Cell line induction pattern (in words) [2]: the cell line was induced throughout the whole explant rather than with respect to the cambium | Reaction with respect to cambium [2]: − | Cell induction pattern (in words) [4]: cells were induced throughout the whole cross section
